Test results reported in US20240269094A1, “Treatment of canine dermatitis and skin irritation” (priority 2023, published 2024).
Like-named read-outs stand apart in the source and are kept apart here.

How the values were obtained:
[1] = test system: itch of urticaria and scalp itch; settings: Kang et al., 2022; cited from earlier work
tongue [2] = assay: Oral cavity screen: 15 mg of crystals on the dorsal surface of the tongue; format: in vivo, human
Description: In this discovery, sensory activity in the oral cavity was the first screen. The goal was to identify candidates producing unusual sensations. Test agents, prepared as 15 mg of white crystals, were placed on the dorsal surface of the tongue. The chemical structures and identifying characteristics are in Table 1. […] Related cooling agents were not freezing cold, except for WS-23.

philtrum skin = assay: Philtrum (skin) bioassay of cooling; format: in vivo, human
Description: FIG. 5. The philtrum bioassay. Cooling agents, prepared as a or in solution are applied to the philtrum skin. Cooling intensity is rated on a scale of 0 to 3, with 0=no changes in sensation, 1=a slight feeling of coolness, cold or tingling, 2=a clearcut feeling of coolness of cold, and 3=a robust feeling of coolness of cold. The duration of cooling was recorded until two zeroes were measured 10 min apart.
TRPM8 EC50 Receptor Assay. […] A receptor assay is a standard tool and can be done quickly. For example, in a 384-plate assay, you can easily test 10 compounds and get dose-response data. For a chemical agonist, an in vitro TRPM8 assay generates an EC50 (median effective concentration). But the quantitative correlation between the EC50 on TRPM8 and cooling sensation was vague. That is, the science was “roughly” predictive, but there was considerable uncertainty for each agonist. […] Philtrum (Skin) Assay. For cooling sensations on the skin, it is necessary to test the substance on the skin. Wei proposed the use of the skin on the philtrum as a test site for cooling activity of chemicals (FIG. 5). The test substance is dissolved in a carrier, such as solvent, gel, or ointment and applied to the philtrum, a surface area of […]. The subject records sensations on the philtrum and environs as:
The subject is given a form to record observations and instructions to mark sensations on the philtrum and environs as: 0=no changes in sensation, 1=a slight feeling of coolness, cold, or tingling, 2=a clearcut feeling of coolness or cold, and 3=a robust feeling of coolness and cold.
The intervals for measurements are usually at 5, to 15 min after application, until two successive zeros are obtained. The philtrum application site is the midline groove above the upper lip border and vermilion. The gel is placed on the philtrum with a cotton-tipped applicator up to the nasolabial folds and sometimes, but not deliberately, on the lower nostrils (subnasale). Cold receptors densely innervate the philtrum skin (FIG. 5), second only to the surfaces of the eyeball and anogenitalia. The lips also have a high density of “cold spots.” Hensel et al. mapped the cold spots on the human face (cited in Dhaka et al., 2008). In animals such as the rat the mystacial pad (nose pad with vibrissae) is abundantly labeled with TRPM8-fibers. “Cold Points” linked to single-unit neuronal discharges can be measured in experimental animals. Wei has direct experience in such experiments (Poree et al., 1989).
Dip a cotton-tipped applicator (Puritan Cotton-tipped applicators, or Q-Tips) into a reservoir bottle containing the liquid or semi-liquid (gel) test substance. The composition adhering to the cotton (about 0.1 mL) is put on the skin. The philtrum site is shown in a cartoon. A subject can practice the method in front of a mirror with a high-intensity light source. Results for test on the philtrum are in Table 8 and FIG. 5. See data in FIG. 6. Cooling agents, prepared as an 8% wt./vol. gel, was tested topically on the philtrum skin assay. The duration of cooling was recorded (min on y-axis). The startling activity of FEMA 4557, cooling for ˜3 hr, was unexpected and surprising. FEMA 3784 is also known as Cool 10 or menthoxypropanediol. […]

tongue [3] = assay: Oral cavity screen: 15 mg of crystals on the dorsal surface of the tongue; format: in vivo, human; settings: less than 2 mg on the tongue
[4] = test system: itch induced by various pruritogens; assay: Itch induced by pruritogens on skin of healthy volunteers (FIG. 1); format: in vivo, human; settings: gel on skin, five test pruritogens, itch self-rated 0 to 10 for 10 min
Description: FIG. 1. Topical Application of a cooling DIPA1-7 gel on skin of healthy volunteers inhibits itch induced by various pruritogens. n=30 subjects per trial. Results of Prof. Hyeone Kim, Sacred Heart Hospital, […] University, Seoul, Korea. Itch intensity was self-rated on a scale of 0 to 10 for 10 min (maximum score=100). […] Further details will be described in a scientific paper.

TRPM8 [5] = target: T1, TRPM8 (Homo sapiens, UniProt Q7Z2W7); assay: TRPM8 in vitro assay, EC50 of cooling agents (published data, Table 5 / FIG. 3); format: cell-based; set-up: EC50; other: Johnson, 2.2/2.2; settings: Johnson, 2.2/2.2
Source text: (§1) FIG. 3. Median Effective Dose (EC50) of various cooling agents in TRPM8 in vitro assay.
(§2) A receptor assay is a standard tool and can be done quickly. For example, in a 384-plate assay, you can easily test 10 compounds and get dose-response data. For a chemical agonist, an in vitro TRPM8 assay generates an EC50 (median effective concentration). But the quantitative correlation between the EC50 on TRPM8 and cooling sensation is not always clear. That is, the language of receptor identification and potency was “roughly” predictive, but there was considerable uncertainty for each agonist. […] Table 5 summarizes results on TRPM8 EC50 (see FIG. 3). The specific references for each value are: […] The full citations are listed in the References. Leffingwell. Ref. 4 gives the FEMA numbers for each compound.
(§3) FIG. 3. Median Effective Dose (EC50) of various cooling agents in TRPM8 in vitro assay. […] The Ref. No. in Table 5 are to: 1=McKemy et al., 2002; 2=Behrendt et al., 2004; 3=Bodding et al., 2007; 4=Sherkheli et al., 2010; and 5=Johnson et al., 2018.
(§4) TRPM8 EC50 Receptor Assay. […] A receptor assay is a standard tool and can be done quickly. […] But the quantitative correlation between the EC50 on TRPM8 and cooling sensation was vague. […]

oral cavity = settings: 100 ppm in 5% sucrose; scale of 0 to 9 units; Johnson, 2018; cited from earlier work
TRPM8 [6] = target: T2, TRPM8 (Mus musculus, UniProt Q8R4D5); settings: Ref. 2 (Behrendt et al., 2004); cited from earlier work
T2 sequence (Q8R4D5 whole entry): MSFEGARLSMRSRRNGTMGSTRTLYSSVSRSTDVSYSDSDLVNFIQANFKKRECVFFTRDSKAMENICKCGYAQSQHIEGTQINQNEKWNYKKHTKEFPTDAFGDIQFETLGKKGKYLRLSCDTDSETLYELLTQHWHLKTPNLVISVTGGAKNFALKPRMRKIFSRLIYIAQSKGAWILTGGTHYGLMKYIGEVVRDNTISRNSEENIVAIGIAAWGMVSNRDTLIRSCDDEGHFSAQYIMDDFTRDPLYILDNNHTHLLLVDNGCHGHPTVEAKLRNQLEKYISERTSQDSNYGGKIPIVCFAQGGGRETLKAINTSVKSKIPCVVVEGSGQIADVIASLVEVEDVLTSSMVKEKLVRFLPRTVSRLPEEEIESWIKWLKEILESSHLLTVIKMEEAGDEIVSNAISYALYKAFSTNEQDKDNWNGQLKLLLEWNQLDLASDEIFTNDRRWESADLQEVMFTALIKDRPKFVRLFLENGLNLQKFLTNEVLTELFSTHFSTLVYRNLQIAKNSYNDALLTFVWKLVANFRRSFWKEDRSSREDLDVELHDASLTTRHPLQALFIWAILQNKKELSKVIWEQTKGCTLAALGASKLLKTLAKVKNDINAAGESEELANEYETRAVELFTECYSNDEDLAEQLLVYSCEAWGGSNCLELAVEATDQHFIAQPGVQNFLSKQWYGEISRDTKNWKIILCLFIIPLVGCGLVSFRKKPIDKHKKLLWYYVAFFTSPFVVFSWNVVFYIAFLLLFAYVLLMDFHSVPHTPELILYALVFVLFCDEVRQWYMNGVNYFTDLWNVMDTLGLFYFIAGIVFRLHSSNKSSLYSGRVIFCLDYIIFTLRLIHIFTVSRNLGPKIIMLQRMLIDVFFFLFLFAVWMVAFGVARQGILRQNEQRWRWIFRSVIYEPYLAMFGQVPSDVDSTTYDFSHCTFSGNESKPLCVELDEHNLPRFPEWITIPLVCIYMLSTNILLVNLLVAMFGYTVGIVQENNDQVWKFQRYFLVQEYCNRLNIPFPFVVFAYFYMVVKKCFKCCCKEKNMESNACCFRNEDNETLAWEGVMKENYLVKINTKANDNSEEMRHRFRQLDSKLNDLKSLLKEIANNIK

TRPM8 [7] = target: T3, TRPM8 (Rattus norvegicus, UniProt Q8R455); assay: TRPM8 in vitro assay, EC50 of cooling agents (published data, Table 5 / FIG. 3); format: cell-based; set-up: EC50; other: Sherkheli, 196/1500; settings: Sherkheli, 196/1500
T3 sequence (Q8R455 whole entry): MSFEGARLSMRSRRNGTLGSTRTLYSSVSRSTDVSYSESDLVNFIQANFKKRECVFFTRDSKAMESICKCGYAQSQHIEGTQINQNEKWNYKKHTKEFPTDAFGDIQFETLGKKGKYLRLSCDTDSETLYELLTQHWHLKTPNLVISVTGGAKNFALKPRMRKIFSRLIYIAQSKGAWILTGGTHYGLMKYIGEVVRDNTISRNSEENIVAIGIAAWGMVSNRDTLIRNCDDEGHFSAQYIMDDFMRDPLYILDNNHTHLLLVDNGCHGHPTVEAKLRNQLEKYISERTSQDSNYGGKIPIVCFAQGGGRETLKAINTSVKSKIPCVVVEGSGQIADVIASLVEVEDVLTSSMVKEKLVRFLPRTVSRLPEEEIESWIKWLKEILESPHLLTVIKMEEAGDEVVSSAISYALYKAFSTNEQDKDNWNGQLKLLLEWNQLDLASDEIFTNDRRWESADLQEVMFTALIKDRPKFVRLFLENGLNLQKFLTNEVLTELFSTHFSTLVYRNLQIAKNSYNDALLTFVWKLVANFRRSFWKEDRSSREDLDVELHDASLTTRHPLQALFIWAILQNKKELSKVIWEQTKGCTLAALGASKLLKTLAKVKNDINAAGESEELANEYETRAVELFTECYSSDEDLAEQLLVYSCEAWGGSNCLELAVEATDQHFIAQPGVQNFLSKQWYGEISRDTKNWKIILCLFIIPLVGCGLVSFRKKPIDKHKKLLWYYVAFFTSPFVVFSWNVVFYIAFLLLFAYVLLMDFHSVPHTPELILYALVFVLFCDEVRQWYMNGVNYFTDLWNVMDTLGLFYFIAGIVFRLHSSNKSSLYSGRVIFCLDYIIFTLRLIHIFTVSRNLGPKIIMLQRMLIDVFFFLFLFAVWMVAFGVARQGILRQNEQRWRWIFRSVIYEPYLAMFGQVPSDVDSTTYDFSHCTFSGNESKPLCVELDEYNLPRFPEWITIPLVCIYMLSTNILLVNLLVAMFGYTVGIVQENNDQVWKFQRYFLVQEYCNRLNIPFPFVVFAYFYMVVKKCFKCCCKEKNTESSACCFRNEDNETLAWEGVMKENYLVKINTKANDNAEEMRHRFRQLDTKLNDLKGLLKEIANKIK
Source text: as §1, §2, §3, §4

TRPM8 [8] = target: T2, TRPM8; assay: as above; format: cell-based; settings: Behrendt et al., 4.1/44
Source text: as §1, §2, §3, §4

TRPM8 [9] = target: T3, TRPM8; set-up: EC50; other: Sherkheli, 196/1500; settings: Ref. 4 (Sherkheli et al., 2010); cited from earlier work
TRPM8 [10] = target: T1, TRPM8; set-up: EC50; other: Johnson, 2.2/2.2; settings: Ref. 5 (Johnson et al., 2018); cited from earlier work
TRPM8 [11] = target: T2, TRPM8; set-up: EC50; settings: Ref. 3 (Bodding et al., 2007); cited from earlier work
[12] = Comparison of classes of cooling agents for applications on the canine skin (grades); set-up: species or system dog; key: A = excellent; B = average; C = poor; F = does not work; settings: grade
Source text: Here are comments on grades assigned to specific classes of cooling agents (Table 3). […] The p-menthane carboxamides cover a wide range of compounds, but they are difficult for skin formulation to achieve a long duration of action. Menthol is short-acting and irritating, especially when it is near the ocular surface. The 1-dialkylphosphorylalkane known as DIPA1-7 (Cryosim-1, 1-dialkylphosphorylheptane) is an excellent skin agent, but costs are high for dermatological applications.

TRPM8 [13] = target: T3, TRPM8; settings: Ref. 1 column (McKemy et al., 2002); cited from earlier work
scratching excoriations = settings: ointment; Biro et al., 2005; cited from earlier work

In the case of `CCCCCCCP(=O)(C(C)C)C(C)C` [DIPA-1-7, 1-diisopropylphosphorylheptane], the “itch in human subjects” value [1] is listed as “inhibited the itch of urticaria and scalp itch”, the “Effects of 15 mg on tongue: sensation” value (tongue [2]) is listed as “stinging, painful cold” and the adverse skin sensations (philtrum skin; on skin, contrast to FEMA 4557) is listed as “frigid cold and irritation”. For the same compound, the “sensation on the tongue” value (tongue [3]) was “frigid, stinging, icy, and painful cold” and the “inhibition of pruritogen-induced itch” value [4] was “significantly inhibited itching”.
For `CNC(=O)C(C)(C(C)C)C(C)C` [WS-23], the “potency relative to menthol (TRPM8 EC50 ratio)” value (TRPM8 [5]) is given as 1, the “Cooling Intensity Oral Cavity Scaled” value (oral cavity) is given as 2.25 and the EC50 (TRPM8 [6]) is given as 44 µM. For the same compound, the “potency relative to menthol (TRPM8 EC50 ratio)” value (TRPM8 [7]) was 0.13, the “Effects of 15 mg on tongue: duration” value (tongue [2]) was roughly 18 min and the “Effects of 15 mg on tongue: sensation” value (tongue [2]) was “painful cold in throat”. For the same compound, the Duration of cooling (philtrum skin; 8% wt/vol on philtrum) was 25 ± 3 min, the “potency relative to menthol (TRPM8 EC50 ratio)” value (TRPM8 [8]) was 0.09 and the EC50 (TRPM8 [9]) was 1500 µM. The EC50 (TRPM8 [10]) was 2.2 µM.
For `O=C1NC(c2cccc([N+](=O)[O-])c2)=CCN1c1ccccc1O` [icilin], the EC50 (TRPM8 [11]) is given as 1.4 µM, the “Absence of Irritancy” value [12] is given as “A” and the Potency [12] is given as “A”. The “Rapid Onset” value [12] was “B”, the “Safety in Use” value [12] was “A” and the “Sufficient Duration” value [12] was “A”. The EC50 (TRPM8 [13]) was 0.36 µM, the scratching excoriations (scratching excoriations) was “prevented scratching excoriations” and the EC50 (TRPM8 [9]) was 7 µM.
